“And” between values parts separate entries of the source, which are not always exact repeats. Identical values can stand only once. Where only a bound is given, the exact number is not on record here.

For the assay, the target named is T1, Cholecystokinin (Sus scrofa, UniProt P01356).
T1 sequence (P01356 whole entry): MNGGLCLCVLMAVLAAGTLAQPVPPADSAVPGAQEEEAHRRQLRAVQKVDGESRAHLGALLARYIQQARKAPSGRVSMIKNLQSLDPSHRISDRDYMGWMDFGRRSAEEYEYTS
Broadly, the Ki is a dissociation constant, usually derived from enzyme kinetics or from competition with a known ligand. A low value points to tighter binding. `Cc1cccc(NC(=O)N[C@H]2N=C(c3ccccc3)c3ccccc3N(C)C2=O)c1`: the inhibitory constant (Ki) is 7.2 nM and 4.8 nM.

With `O=C(NC(Cc1c[nH]c2ccccc12)C(=O)O)c1ccc(Cl)cc1` (stereo unspecified), the Ki is more than 10000 nM. Turning to `CC(Cc1c[nH]c2ccccc12)(NC(=O)OC1C2CC3CC(C2)CC1C3)C(=O)NCC(NC(=O)CCC(=O)O)c1ccccc1` (stereo unspecified) [NSC_108186], the inhibitory constant (Ki) is 0.46 nM and 2 nM. The same measure for `CN1C(=O)[C@@H](NC(=O)c2cc3ccccc3[nH]2)N=C(c2ccccc2)c2ccccc21` [1H-Indole-2-carboxylic acid (1-methyl-2-oxo-5-phenyl-2,3-dihydro-1H-benzo[e][1,4]diazepin-3-yl)-amide: 0.1C4H10O. 0.15CH2Cl2]: 141 nM and 87 nM; for `CSCC[C@H](NC(=O)[C@H](Cc1c[nH]c2ccccc12)NC(=O)CCNC(=O)OC(C)(C)C)C(=O)N[C@@H](CC(=O)O)C(=O)N[C@@H](Cc1ccccc1)C(N)=O` [CAS_5534-95-2]: 3.3 nM and 6 nM. The same measure for `CSCC[C@H](NC(=O)[C@H](Cc1ccc(OS(=O)(=O)O)cc1)NC(=O)[C@@H](N)CC(=O)O)C(=O)NCC(=O)N[C@@H](Cc1c[nH]c2ccccc12)C(=O)N[C@@H](CCSC)C(=O)N[C@@H](CC(=O)O)C(=O)N[C@@H](Cc1ccccc1)C(N)=O` [(3S)-3-[(2S)-2-[(2S)-2-{2-[(2S)-2-[(2S)-2-[(3S)-3-amino-3-formamidopropanoic acid]-3-[4-(sulfooxy)phenyl]propanamido]-4-(methylsulfanyl)butanamido]acetamido}-3-(1H-indol-3-yl)propanamido]-4-(methylsulfanyl)butanamido]-3-{[(1S)-1-carbamoyl-2-phenylethyl]carbamoyl}propanoic acid]: 0.43 nM and 1.1 nM.

Source of the values: BindingDB's records for PubMed 7791071 (Rhone-Poulenc Rorer Central Research, 1995).
